Experimental data published in PubChem BioAssay AID1963962 (Molecular Pharmacology Branch, DTP, NCI, 2024).

Tested on: 967376-340-R-J2-PDC multicell spheroid viability
Assay: Anticancer human tumor 967376-340-R-J2-PDC patient-derived colon adenocarcinoma cell line growth inhibition [PI3K]
Conditions: for IC50: curve of first compound; for viability, T/C: stronger effect = lower value; active = viability on the fitted dose curve at most 10% of control; inactive = the rest
From the text: Combinatorial screen of targeted agents with the PI3K inhibitors inavolisib, alpelisib, duvelisib, and copanlisib in multi-cell type tumor spheroids
A high-throughput screen of multi-cell type tumor spheroids was designed to identify active combinations of targeted small molecules and PI3K pathway inhibitors. Complex spheroids include a stromal component modeled by human endothelial cells (HUVEC) and fibroblasts modeled by human mesenchymal stem cells (MSCs). The concentration ranges selected for each drug and investigational agent were based upon clinically achievable concentrations if the clinical Cmax of the agent was known.
Compounds. The drugs and investigational agents: inavolisib (NSC800729), alpelisib (NSC765974), duvelisib (NSC772469), copanlisib (NSC816437), ipatasertib (NSC767898), afuresertib (NSC778305), talazoparib (NSC767125), sapanisertib (NSC764658), selumetinib (NSC741078), tovorafenib (DAY101, NSC766906), vemurafenib (NSC761431), ravoxertinib (NSC781343), sotorasib (NSC818433), MRTX1133 (NSC 836407), abemaciclib (NSC 768073), palbociclib (NSC758247), venetoclax (NSC 766270), SY5609 (NSC837396), enzalutamide (NSC755605), and darolutamide (NSC825331), were obtained from the National Cancer Institute (NCI) Developmental Therapeutics Program Chemical Repository. The FDA-approved anticancer drug set is available from the NCI Developmental Therapeutics Program. […] The stock solutions were prepared in dimethyl sulfoxide (DMSO, Sigma-Aldrich, St. Louis, MO, cat. D2650) at 800-fold the tested concentration and stored at -70 degrees C prior to their use. All drugs and investigational agents were tested over a range starting from a high concentration at or near the clinical Cmax and decreasing in half-log increments. If the clinical Cmax for an agent had not been determined, the highest concentration tested was 10 microM.
Cell Culture. All cells were maintained in an incubator at 37 degrees C and 5% CO2 with 95% humidity. The PDC lines were cultured according to standard operating procedures established by the NCI PDMR (https://pdmr.cancer.gov/sops/default.htm). All PDCs were thawed and cultured in Matrigel-coated flasks prepared with a working solution of 1X Ham's F-12 nutrient mix, without supplementation (Invitrogen, Waltham, MA, cat. 11765054), 100 U/mL penicillin-streptomycin (Invitrogen, cat. 15140122), and 2.5% Matrigel (Corning Inc., Corning, NY, cat. 354248) for the first three passages. The 354836-022-R-J1-PDC, 475296-252-R-J1-PDC, and 997726-040-R-J2-PDC lines were cultured in 6A media, which includes advanced DMEM/F-12 (Thermo Fisher Scientific, cat. 12634028), 10 mM HEPES (Thermo Fisher Scientific, cat. 15630080), 1X GlutaMAX supplement (Thermo Fisher Scientific, cat. 35050061), 0.1 mg/mL primocin (InvivoGen, San Diego, CA, cat. ant-pm-2), 10% defined fetal bovine serum, heat inactivated (HyClone Laboratories Inc., Logan, UT, cat. SH30070.03HI), 50% L-WRN conditioned media (ATCC, cat. CRL-3276), 1.25 mM N-Acetyl-L-cysteine (Sigma-Aldrich, cat. A9165), 10 mM nicotinamide (Sigma-Aldrich, cat. N0636), 1X B-27 supplement (Thermo Fisher Scientific, cat. 17504044), 1X N-2 supplement (Thermo Fisher Scientific, cat. 17502048), and 10 microM Y-27632 dihydrochloride (Tocris Bioscience, Bristol, United Kingdom, cat. 1254). The 624824-186-R-J2-PDC line was cultured in 6C/Colon 1B media, which includes all 6A media components plus 50 ng/mL human EGF recombinant protein (Thermo Fisher Scientific, cat. PHG0311). […]
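Note: spheroids exposed to agents for 7 days before read-out.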
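Throughout, for viability, T/C: luminescence used as surrogate of cell viability.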

CC(=O)c1c(C)c2cnc(Nc3ccc(N4CCNCC4)cn3)nc2n(C2CCCC2)c1=O + CC(Nc1ccc2c(c1)OCCn1cc(N3C(=O)OCC3C(F)F)nc1-2)C(N)=O
inactive: viability, T/C (second compound 0.00316 µM, first compound 0.000316 µM) 111% | viability, T/C (second compound 0.00316 µM, first compound 0.001 µM) 79.3% | viability, T/C (second compound 0.00316 µM, first compound 0.00316 µM) 93.8% | viability, T/C (second compound 0.00316 µM, first compound 0.01 µM) 102% | viability, T/C (second compound 0.00316 µM, first compound 0.0316 µM) 114% | viability, T/C (second compound 0.00316 µM, first compound 0.1 µM) 87.4% | viability, T/C (second compound 0.01 µM, first compound 0.000316 µM) 100% | viability, T/C (second compound 0.01 µM, first compound 0.001 µM) 101% | viability, T/C (second compound 0.01 µM, first compound 0.00316 µM) 96.4% | viability, T/C (second compound 0.01 µM, first compound 0.01 µM) 93% | viability, T/C (second compound 0.01 µM, first compound 0.0316 µM) 94.7% | viability, T/C (second compound 0.01 µM, first compound 0.1 µM) 75.8% | viability, T/C (second compound 0.0316 µM, first compound 0.000316 µM) 92.7% | viability, T/C (second compound 0.0316 µM, first compound 0.001 µM) 88.4% | viability, T/C (second compound 0.0316 µM, first compound 0.00316 µM) 70.7% | viability, T/C (second compound 0.0316 µM, first compound 0.01 µM) 117% | viability, T/C (second compound 0.0316 µM, first compound 0.0316 µM) 91.3% | viability, T/C (second compound 0.0316 µM, first compound 0.1 µM) 84.7% | viability, T/C (second compound 0.1 µM, first compound 0.000316 µM) 87.9% | viability, T/C (second compound 0.1 µM, first compound 0.001 µM) 78.8% | viability, T/C (second compound 0.1 µM, first compound 0.00316 µM) 96.3% | viability, T/C (second compound 0.1 µM, first compound 0.01 µM) 64.3% | viability, T/C (second compound 0.1 µM, first compound 0.0316 µM) 90.2% | viability, T/C (second compound 0.1 µM, first compound 0.1 µM) 79.7% | viability, T/C (second compound 0.316 µM, first compound 0.000316 µM) 64.3% | viability, T/C (second compound 0.316 µM, first compound 0.001 µM) 74.7% | viability, T/C (second compound 0.316 µM, first compound 0.00316 µM) 72.8% | viability, T/C (second compound 0.316 µM, first compound 0.01 µM) 72.1% | viability, T/C (second compound 0.316 µM, first compound 0.0316 µM) 72.9% | viability, T/C (second compound 0.316 µM, first compound 0.1 µM) 67.8% | viability, T/C (second compound 1 µM, first compound 0.000316 µM) 65% | viability, T/C (second compound 1 µM, first compound 0.001 µM) 64.2% | viability, T/C (second compound 1 µM, first compound 0.00316 µM) 77.8% | viability, T/C (second compound 1 µM, first compound 0.01 µM) 55.7% | viability, T/C (second compound 1 µM, first compound 0.0316 µM) 61.6% | viability, T/C (second compound 1 µM, first compound 0.1 µM) 50.9%
> 100 nM: IC50 (second compound 0.00316 µM) | IC50 (second compound 0.01 µM) | IC50 (second compound 0.0316 µM) | IC50 (second compound 0.1 µM) | IC50 (second compound 0.316 µM) | IC50 (second compound 1 µM)
